Consider four molecules from patent US20040048791A1, “Method for treating neoplastic cells using cycloprodigiosin or salt thereof” (priority 2002, published 2004).

The conditions of data set [1]: Oka et al. (2000) FEBS Lett.; cited from earlier work.
The test system of data set [2] is HeLa cells. The data set is described as follows: DNA fragmentation (apoptosis) in HeLa cells. The note with it: stimulation by TNFα alone, FIG. 1A. Format: cell-based. How it is done:
(§1) Cell culture: HeLa cells were cultured in Dulbecco's modified Eagle's medium supplemented with 10% fetal bovine serum and 50 μg/ml kanamycin at 37° C. in 5% CO2 in air.
(§2) Assay for apoptotic processes: Cell viability was determined by dye exclusion assay using 0.1% trypan blue. DNA fragmentation was analyzed as described previously (Kawauchi, K. et al. (1997) Biochem. Biophys. Res. Commun. 237, 543-547). In the caspase-3 assay, cells were disrupted by freeze-thaw in an extraction buffer (50 mM Tris-HCl, pH7.4, 1 mM EGTA, 5 mM EDTA, 5 mM MgCl2, 1 mM APMSF, 10 μg/ml pepstatin, 10 μg/ml leupeptin, and 1 mM DTT). Then the suspension was centrifuged at 15,000 rpm for 20 min, and the supernatants obtained were incubated at 37° C. for 60 min in a reaction buffer (50 mM Tris-HCl, pH7.4, 1 mM EDTA, 10 mM EGTA) with 20 μM of the fluorogenic substrate DEVD-AFC (Peptide Institute, Inc., Japan). Cleavage of the substrates was quantified by measuring the fluorescence of 7-amino-4-trifluomethyl coumarin released using a spectrofluorometer (Shimadzu RF5000) with excitation at 380 mn and emission at 460 nm.
HeLa cells were treated with TNFα and cPrG.HCl and the effect of cPrG.HCl on apoptosis was examined by measuring DNA fragmentation and survivability.

Data set [3] concerns HeLa cells. The data set is described as follows: Cell viability by trypan blue dye exclusion assay. Format: cell-based. The note with it: stimulation by TNFα alone, FIG. 1A. As for the experimental part:
as §1, §2

For the next data set, the system named is NF-κB. The data set is described as follows: NF-κB luciferase gene reporter assay (pIG3Luc) in HeLa cells. It counts as cell-based. The note with it: HeLa cells, FIG. 2A, 2C. An excerpt:
The plasmids, pRKF-IKKα and pRKHA-IKKβ have been described previously (Oka, S., Kamata, H., Kamata, K., Yagisawa, H. and Hirata, H. (2000) FEBS Lett., 472, 196-202). pRKF-IKKαEE and pRK-HA-IKKβEE encode constitutively active mutants of IKKα, in which 176 and 180 serine residues in an activation loop are replaced by glutamic acid residues, and IKKβ, in, which 177 and 181 serine residues are replaced by glutamic acid residues, respectively. A reporter plasmid pIG3Luc for NF-κB encodes triple NF-κB binding site sequences (AGCTTCAGAGGGGACTRANSCRIPTIONCCGAGAGG) (SEQ ID NO: 2) followed by the luciferase gene. A control plasmid, pBKRLuc, was obtained from Toyobo (Toyo B-Net Co., Japan). pcDNAF-MEKK1, pRKF-p65, pEFBOSHA-Rac1-DA, and pEFBOSHA-Cdc42-DA, are the expression plasmids for MEKK1, the NF-κB subunit p65, constitutively active Rac1 and Cdc42, respectively.
Luciferase gene reporter assay and Kinase assays of IKK: HeLa cells were transfected with the reporter plasmids described above using Lipofectin (GIBCO BRL). After 24-48 hr, the luciferase activity was determined using the Luciferase Assay System (Promega). The kinase activity of IKKα and IKKβ were analyzed by immune complex kinase assay as described previously (Oka, S., Kamata, H., Kamata, K., Yagisawa, H. and Hirata, H. (2000) FEBS Lett. 472, 196-202). The substrates was using GST-IκBα(1-55) or GST-p65(399-551).
The gene expression induction by NF-κB activation plays the most important role among “life” signals by TNFα. Therefore, the NF-κB reporter gene was introduced into the cells to analyze the effect of cPrG-HCl by luciferase assay.
NF-κB is translocated into the nucleus also by activation with low-molecular-weight G proteins Rac1 and Cdc42 or MEKK1 and induces gene expression. An activated Rac1, Cdc42 or MEKK1 expression plasmid was introduced together with the NF-κB reporter gene into cells and the effect of cPrG-HCl on NF-κB activation was measured by luciferase assay (FIG. 4A and FIG. 4B).

The test system of a further data set is female ICR mice. Briefly: Toxicity on intraperitoneal administration to mice. It counts as in vivo. The note with it: 5 weeks old, 25 to 29 g.
The conditions of data set [4]: as compared to FCCP.

As to `CC(=O)N[C@@H](CS)C(=O)O` [N-acetylcysteine], the effect on apoptosis result in data set [1] is “inhibits”. Turning to TNFα, in the data set with HeLa cells [2], the DNA fragmentation entry is reported as “hardly observed”. Also, in the data set with HeLa cells [3], the “decrease in cell viability” value is reported as “hardly observed”.

As for `CO/C1=C\C(C)=C\[C@@H](C)[C@@H](O)[C@@H](C)C/C(C)=C/C=C/[C@H](OC)[C@@H]([C@@H](C)[C@@H](O)[C@H](C)[C@@]2(O)C[C@@H](O)[C@H](C)[C@@H](C(C)C)O2)OC1=O` [bafilomycin, reference compound], in the data set on NF-κB, the “TNFα-induced NF-κB activation (gene expression induction, luciferase)” value is given as “not suppressed”. In the case of `COC1=CC(c2ccc[nH]2)=N/C1=C\c1[nH]c(C)c2c1C(C)CCC2` (stereo not drawn) [cPrG, Cycloprodigiosin], the LD50 entry in the data set on female ICR mice is listed as “greater than 10 mg”. In addition, the ionophore activity entry in data set [4] is listed as “no ionophore activity”.
